Results from patent EP1170007A1, “REMEDIES” (Takara Shuzo Co, Ltd., priority 1999, dated 2000).
Values joined by “and” are separate entries in the source; they are usually repeats but may differ in a detail not shown here. Equal values may be shown once.

Test system: interleukin-12
Test: Intraperitoneal interleukin-12 in mice inoculated with Ehrlich cancer cells (ELISA)
Assay type: in vivo, ddY mouse
Settings: for Amount of intraperitoneal interleukin-12: 10 mg/kg intraperitoneally 1 day after inoculation, individual mice
Procedure: ddY mouse (female, 5 weeks old, weighing about 25 g) purchased from Japan SLC was used for experiments after preliminary breeding for 1 week. 1 x 10^6 Ehrlich cancer cells were intraperitoneally inoculated into the mouse. 10 mg/kg of cyclopentenone was intraperitoneally administered 1 day after the inoculation. The mouse was sacrificed by decapitating and exsanguinating 8 or 12 days after the inoculation with cancer cells. 2 ml, which is the same volume as that of ascites retained in the control mouse, of PBS (-) (Nissui Pharmaceutical) containing 1% bovine serum albumin (Sigma) was intraperitoneally injected into the mouse, which was recovered after extensive massage. For a control group, ascites was directly recovered. The recovered ascites and peritoneal lavage fluid were centrifuged at 2000 rpm for 5 minutes to recover supernatants. The supernatants were used to quantify the amounts of interleukin-12 using an ELISA kit for mouse interleukin-12 measurement (Endogen).

SMILES: O=C1C=CC(O)C1O (stereo not drawn) [cyclopentenone, 4,5-dihydroxy-2-cyclopenten-1-one]
- Amount of intraperitoneal interleukin-12 (After 8 Days, control group ND): 11.0 pg/mL and 100.0 pg/mL and 25.0 pg/mL
- Amount of intraperitoneal interleukin-12 (After 12 Days, control group all dead): 43.0 pg/mL and 97.2 pg/mL and 66.4 pg/mL
- activity of enhancing interleukin-12 production (result in words) (Ehrlich cancer cell inoculated mice): an activity of enhancing interleukin-12 production by cyclopentenone was observed for each mouse
